Assay results taken from PMC3909768 (Journal of Cancer, 2014).
Where “and” joins values, the source holds several entries; their conditions need not be identical. Identical values can stand only once.

How the values were obtained:
CYP 2D6 = CYP 2D6 (Homo sapiens, UniProt P10635); assay: CYP inhibition; format: in vitro ADME; conditions: concentrations up to 10 uM
AR = target: T1, AR (Homo sapiens, UniProt P10275); format: cell-based
T1 sequence (P10275 1-920): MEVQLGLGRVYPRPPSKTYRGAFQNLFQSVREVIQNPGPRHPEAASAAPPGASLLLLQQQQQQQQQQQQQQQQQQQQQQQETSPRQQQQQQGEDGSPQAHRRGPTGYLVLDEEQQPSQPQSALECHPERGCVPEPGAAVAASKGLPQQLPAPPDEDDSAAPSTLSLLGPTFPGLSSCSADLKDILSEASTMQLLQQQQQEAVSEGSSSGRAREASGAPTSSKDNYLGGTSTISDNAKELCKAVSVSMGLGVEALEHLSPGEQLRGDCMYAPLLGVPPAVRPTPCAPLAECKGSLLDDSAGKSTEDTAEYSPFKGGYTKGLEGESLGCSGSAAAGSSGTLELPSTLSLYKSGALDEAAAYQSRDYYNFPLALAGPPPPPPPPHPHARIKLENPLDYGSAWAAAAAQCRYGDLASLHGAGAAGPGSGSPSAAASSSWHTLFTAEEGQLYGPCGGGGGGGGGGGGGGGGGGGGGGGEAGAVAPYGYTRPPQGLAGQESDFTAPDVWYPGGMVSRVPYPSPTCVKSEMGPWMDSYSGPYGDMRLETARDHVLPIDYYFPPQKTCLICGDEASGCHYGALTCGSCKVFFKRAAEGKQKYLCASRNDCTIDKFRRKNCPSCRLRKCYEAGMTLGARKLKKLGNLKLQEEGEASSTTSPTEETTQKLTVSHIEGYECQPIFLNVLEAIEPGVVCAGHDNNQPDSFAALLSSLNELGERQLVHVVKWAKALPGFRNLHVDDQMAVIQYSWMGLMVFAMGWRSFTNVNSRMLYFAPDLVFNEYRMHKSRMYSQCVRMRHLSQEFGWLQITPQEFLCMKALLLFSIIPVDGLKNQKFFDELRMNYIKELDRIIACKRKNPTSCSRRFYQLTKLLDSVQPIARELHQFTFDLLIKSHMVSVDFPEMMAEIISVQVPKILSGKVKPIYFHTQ

[1] = tested on: AR-dependent PSA expression in prostate cancer cells LnCAP; assay: DHT-induced PSA expression in LnCAP cells; format: cell-based
LnCaP-Z2 tumors = assay: LnCaP-Z2 xenograft antitumor efficacy; format: in vivo, male CB17-SCID mice
AR-LBD = target: T2, AR-LBD (Homo sapiens, UniProt P10275); assay: biochemical
T2 sequence (P10275 669-900 limits assumed): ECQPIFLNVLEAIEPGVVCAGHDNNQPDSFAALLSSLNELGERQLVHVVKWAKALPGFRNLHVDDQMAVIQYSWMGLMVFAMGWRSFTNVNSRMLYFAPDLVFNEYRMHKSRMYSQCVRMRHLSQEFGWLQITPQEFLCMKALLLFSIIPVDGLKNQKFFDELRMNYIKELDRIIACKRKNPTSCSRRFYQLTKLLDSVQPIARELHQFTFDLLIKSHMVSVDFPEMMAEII

[2] = Plasma protein binding by equilibrium dialysis, rat; format: in vitro ADME; conditions: Rats plasma, 1 uM, equilibrium dialysis 4h 37C
CYP 3A4 = CYP 3A4 (Homo sapiens, UniProt P08684); assay: CYP inhibition; format: in vitro ADME; conditions: concentrations up to 10 uM
CYP 3A4, sequence (P08684 whole entry): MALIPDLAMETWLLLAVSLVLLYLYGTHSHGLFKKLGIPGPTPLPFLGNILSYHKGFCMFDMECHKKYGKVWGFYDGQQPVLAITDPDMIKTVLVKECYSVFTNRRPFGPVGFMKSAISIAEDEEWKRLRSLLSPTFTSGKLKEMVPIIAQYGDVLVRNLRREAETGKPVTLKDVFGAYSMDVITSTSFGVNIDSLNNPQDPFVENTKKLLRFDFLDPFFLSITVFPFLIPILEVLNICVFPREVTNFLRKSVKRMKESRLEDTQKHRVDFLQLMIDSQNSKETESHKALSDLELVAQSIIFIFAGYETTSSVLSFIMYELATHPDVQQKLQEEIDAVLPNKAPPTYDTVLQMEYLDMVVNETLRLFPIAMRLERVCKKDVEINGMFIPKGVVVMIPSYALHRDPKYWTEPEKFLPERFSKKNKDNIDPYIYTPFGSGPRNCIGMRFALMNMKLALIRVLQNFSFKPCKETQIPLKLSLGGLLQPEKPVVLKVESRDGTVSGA

[3] = Brain and prostate distribution after single IV in rats; conditions: rat, in vivo, 2 mg/kg; for concentration at 30 min / concentration at 120 min: single IV 2 mg/kg
Rat pharmacokinetics = conditions: for C24h: after 14 administrations; for AUC(0-inf) / k el / MRT inf / concentration at 24 h / Cmax / Tmax / half-life: male, Sprague Dawley, rat, in vivo
CYP3A = CYP3A induction in human hepatocytes; format: in vitro ADME; conditions: for CYP 3A induction, Positive control, %: human hepatocytes, 48 hours, listed as ONC1-0013B
CYP 2C9 = CYP 2C9 (Homo sapiens, UniProt P11712); assay: CYP inhibition; format: in vitro ADME; conditions: concentrations up to 10 uM
CYP 2C9, sequence (P11712 whole entry): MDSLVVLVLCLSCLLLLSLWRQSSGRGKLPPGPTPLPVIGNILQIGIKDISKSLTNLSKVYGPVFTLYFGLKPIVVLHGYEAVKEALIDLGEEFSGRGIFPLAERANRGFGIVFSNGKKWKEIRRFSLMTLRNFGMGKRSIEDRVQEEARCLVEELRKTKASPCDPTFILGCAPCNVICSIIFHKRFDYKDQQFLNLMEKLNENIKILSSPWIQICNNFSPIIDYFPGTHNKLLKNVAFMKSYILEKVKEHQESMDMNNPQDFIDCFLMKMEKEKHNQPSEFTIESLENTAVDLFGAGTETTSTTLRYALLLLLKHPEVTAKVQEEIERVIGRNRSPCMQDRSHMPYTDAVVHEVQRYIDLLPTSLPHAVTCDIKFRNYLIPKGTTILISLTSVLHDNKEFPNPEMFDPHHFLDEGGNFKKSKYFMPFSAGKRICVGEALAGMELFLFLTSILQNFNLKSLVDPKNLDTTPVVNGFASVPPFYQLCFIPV

[4] = tested on: androgen-dependent reproductive organs; assay: Weight of androgen-dependent reproductive organs in rats, 14 days; format: in vivo, male rats; conditions: 30, 100 and 300 mg/kg/day po
CYP 2C19 = CYP 2C19 (Homo sapiens, UniProt P33261); assay: CYP inhibition; format: in vitro ADME; conditions: concentrations up to 10 uM
CYP 2C19, sequence (P33261 whole entry): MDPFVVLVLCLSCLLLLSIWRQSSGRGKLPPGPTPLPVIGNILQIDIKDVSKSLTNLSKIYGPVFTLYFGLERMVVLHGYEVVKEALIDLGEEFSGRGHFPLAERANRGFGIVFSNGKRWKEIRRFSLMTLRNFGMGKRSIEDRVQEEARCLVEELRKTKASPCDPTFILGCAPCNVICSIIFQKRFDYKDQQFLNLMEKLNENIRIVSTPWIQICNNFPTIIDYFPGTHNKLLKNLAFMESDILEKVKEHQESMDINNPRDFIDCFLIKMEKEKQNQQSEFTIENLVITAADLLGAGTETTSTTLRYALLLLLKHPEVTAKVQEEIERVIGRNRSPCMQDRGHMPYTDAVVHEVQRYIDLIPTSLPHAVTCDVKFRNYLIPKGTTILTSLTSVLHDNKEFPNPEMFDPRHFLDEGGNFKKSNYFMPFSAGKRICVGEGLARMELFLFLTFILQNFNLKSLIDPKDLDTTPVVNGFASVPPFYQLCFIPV

CYP 2D6, sequence (P10635 whole entry): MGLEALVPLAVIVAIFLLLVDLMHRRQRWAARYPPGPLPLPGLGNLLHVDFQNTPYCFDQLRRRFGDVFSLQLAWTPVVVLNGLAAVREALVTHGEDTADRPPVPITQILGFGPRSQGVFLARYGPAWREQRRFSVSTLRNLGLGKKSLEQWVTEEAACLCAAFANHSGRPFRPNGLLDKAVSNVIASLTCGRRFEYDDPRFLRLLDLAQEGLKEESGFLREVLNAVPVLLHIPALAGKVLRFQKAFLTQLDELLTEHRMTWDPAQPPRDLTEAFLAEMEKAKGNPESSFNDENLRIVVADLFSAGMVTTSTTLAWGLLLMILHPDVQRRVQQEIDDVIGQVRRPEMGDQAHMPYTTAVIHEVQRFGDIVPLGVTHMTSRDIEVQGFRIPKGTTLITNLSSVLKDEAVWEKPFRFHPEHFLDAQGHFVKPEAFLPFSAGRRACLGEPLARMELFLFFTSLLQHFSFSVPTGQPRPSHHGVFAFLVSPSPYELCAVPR

CNC(=O)c1ccc(N2C(=S)N(c3ccc(C#N)c(C(F)(F)F)c3)C(=O)[C@]23CCOC3)cc1F [ONC1-13B, 4-[(R)-3-(4-Cyano-3-trifluoromethyl-phenyl)-4-oxo-2-thioxo-7-oxa-1,3-diaza-spiro[4.4]non-1-yl]-2-fluoro-N-methyl-benzamide]
inhibition of CYP 2D6 activity (CYP 2D6): doesn`t inhibit | inhibition of 6a-Fluotestosterone induced AR nuclear translocation, in words (AR): completely inhibit | fold more efficient than bicalutamide in inhibiting DHT-induced PSA expression [1]: around 10 fold | antitumor efficacy, in words (LnCaP-Z2 tumors; 20 mg/kg twice daily): highest antitumor efficacy | tumors regressed (LnCaP-Z2 tumors; 20 mg/kg twice daily po, 21 days): 4 of 8 | antitumor efficacy, in words (LnCaP-Z2 tumors; once daily at 20 or 50 mg/kg, vs MDV3100 10mg/kg once daily): comparable to MDV3100 | IC50 (AR-LBD): 19.9 µM | Bound fraction [2]: 89.7% | inhibition of CYP 3A4 activity (CYP 3A4): doesn`t inhibit | Kp [3]: 1.2 to 1.6 | Kp at 30 min [3]: 1.55 ± 0.08 | Kp at 120 min [3]: 1.2 ± 0.36 | concentration at 30 min ([3]; Prostate): 1160 ± 164 ng/g | concentration at 120 min ([3]; Prostate): 625 ± 108 ng/g | concentration at 30 min ([3]; brain): 145 ± 22 ng/g | concentration at 120 min ([3]; brain): 89 ± 10 ng/g | concentration at 30 min ([3]; plasma): 746 ± 104 ng/mL | concentration at 120 min ([3]; plasma): 522 ± 57 ng/mL | C24h (Rat pharmacokinetics; Multiple PO 100 mg/kg): 2 794 ng/mL | C24h (Rat pharmacokinetics; Multiple PO 300 mg/kg): 2 122 ng/mL | Vss_obs (Rat pharmacokinetics; Single IV 1 mg/kg): 2.0 L/kg | Сl (Rat pharmacokinetics; Single IV 1 mg/kg): 6.4 mL/min/kg | AUC(0-inf) (Rat pharmacokinetics; iv, 1 mg/kg): 2.57 µg·h/mL | k el (Rat pharmacokinetics; iv, 1 mg/kg): 4.64e-05 s⁻¹ | MRT inf (Rat pharmacokinetics; po, 5 mg/kg): 7 h | concentration at 24 h (Rat pharmacokinetics; po, 5 mg/kg): 51 ng/mL | k el (Rat pharmacokinetics; po, 5 mg/kg): 3.61e-05 s⁻¹ | AUC(0-inf) (Rat pharmacokinetics; po, 30 mg/kg): 95 µg·h/mL | Cmax (Rat pharmacokinetics; po, 30 mg/kg): 7160 ng/mL | MRT inf (Rat pharmacokinetics; po, 30 mg/kg): 4 h | Tmax (Rat pharmacokinetics; po, 30 mg/kg): 4 h | concentration at 24 h (Rat pharmacokinetics; po, 30 mg/kg): 159 ng/mL | half-life (Rat pharmacokinetics; po, 30 mg/kg): 4 h | k el (Rat pharmacokinetics; po, 30 mg/kg): 5.28e-05 s⁻¹ | AUC(0-inf) (Rat pharmacokinetics; po, 100 mg/kg): 268 µg·h/mL | Cmax (Rat pharmacokinetics; po, 100 mg/kg): 16400 ng/mL | MRT inf (Rat pharmacokinetics; po, 100 mg/kg): 10 h | Tmax (Rat pharmacokinetics; po, 100 mg/kg): 4 h | half-life (Rat pharmacokinetics; po, 100 mg/kg): 8 h | k el (Rat pharmacokinetics; po, 100 mg/kg): 2.5e-05 s⁻¹ | AUC(0-inf) (Rat pharmacokinetics; po, 300 mg/kg): 314 µg·h/mL | Cmax (Rat pharmacokinetics; po, 300 mg/kg): 20500 ng/mL | MRT inf (Rat pharmacokinetics; po, 300 mg/kg): 7 h | Tmax (Rat pharmacokinetics; po, 300 mg/kg): 4 h | half-life (Rat pharmacokinetics; po, 300 mg/kg): 6 h | k el (Rat pharmacokinetics; po, 300 mg/kg): 3.06e-05 s⁻¹ | CYP3A induction, in words (CYP3A; 1uM): no activity | CYP 3A induction, Positive control, % (CYP3A; 1 uM): 0.0±2.0% and 3.3±0.6% | fold less potent in CYP3A induction compared to MDV3100 and ARN-509 (CYP3A; 10uM): ~ 2 fold | CYP 3A induction, Positive control, % (CYP3A; 10 uM): 51.3±3.5% and 42.0±6.1% | inhibition of CYP 2C9 activity (CYP 2C9): doesn`t inhibit | weight of prostate, epididymis and seminal vesicles, in words [4]: significantly and dose-dependently decreases | inhibition of CYP 2C19 activity (CYP 2C19): doesn`t inhibit
